Measured values taken from US12128038B2, “Method of treatment of organic acidemias and other mitochondria defects or deficiencies” (University of Pittsburgh-Of the Commonwealth System of …, priority 2020, dated 2024).

What was measured:
Format in all cases: cell-based, human
[1] = tested on: PA patient (859) fibroblasts; assay: Mitochondrial superoxide production by MitoSOX Red assay (flow cytometry); conditions: PA cells, treatment for 24 h
Description: (§1) Cells Culture and Treatments: Fibroblast from a healthy control (826) and a PA patient (859) were grown in DMEM with glucose supplemented with 10% FBS, and 4 mM glutamine. Control and PA cells were treated either with JP4-039, CLP, or DMSO (vehicle control) for 24 h and then harvested for analysis.
Mitochondrial Superoxide production and Mitochondrial Mass: 150,000 Cells were incubated with MitoSOX Red (5 μM) and MitoTracker Green (150 nM) for 20 min at 37° C. and then analyzed by FACSAriall Flow cytometer.
FIG. 2. Superoxide levels detected by MitoSOX Red assay (A, B and C) and Mitochondrial mass detected by MitoTracker Green (D, E and F) in PA and healthy control cells with and without treatment for 24 h (A, B and C). Data shown here are means±SD and are normalized to WT mean value. ****P<0.0001, ***P<0.001, **P<0.01, *P<0.05 compared between the groups shown using unpaired t test for samples from a single biological replicate and minimum of at least three technical replicates.

[2] = tested on: PA (859) fibroblast cell line; assay: Mitochondrial respiration (oxygen consumption rate), Seahorse XFe96 Extracellular Flux Analyzer; conditions: PA cells, treatment for 24 h, Seahorse OCR
Description: as §1
Measurement of Mitochondria Respiration: Oxygen consumption rate (OCR) was measured with a Seahorse XFe96 Extracellular Flux Analyzer, Seahorse Bioscience, Billerica, MA.
FIG. 3. Effect of JP4-039 and CLP on basal respiration of control (826) and PA (859) fibroblast cell line. Data shown here are means±SEM and are normalized to protein amount mean value. ****P<0.0001 and ***P<0.001 compared between the groups shown using unpaired t test for samples from a single biological replicate and 8 technical replicates.

[3] = tested on: cells from patients with inborn errors of energy metabolism; assay: Cellular bioenergetics and reactive oxygen on incubation with antioxidants

Row | Structure (SMILES) | superoxide level [1] | basal respiration [2] | cellular bioenergetics [3] | reactive oxygen [3]
1 | O=C(O)CC(O)(CC(=O)O)C(=O)O [citrate] | reduced | reduced | – | –
2 | CC(C)C[C@@H](/C=C/[C@H](Cc1ccccc1)C(=O)N1CCC[C@H]1C(=O)N[C@H](C(=O)N[C@@H](CCCNC(=O)OCc1ccccc1)C(=O)NC1CC(C)(C)N([O])C(C)(C)C1)C(C)C)NC(=O)OC(C)(C)C [XJB-5-131] | – | – | improve | improve
3 | O=C(O)CCC(=O)O [succinate] | reduced | reduced | – | –
